# In PubChem BioAssay (NCI):
#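 Test compounds were applied to cells in 96-well plates for 48 hours at 5 doses. Here, GI50 denotes the concentration required for 50% inhibition of growth. TGI: total growth inhibition.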
# Experiments:
# Assay in all cases: DTP human tumour cell line panel, 48 h
# 786-0 renal = system: 786-0 renal
# A498 renal = system: A498 renal
# A549 NSCLC = system: A549 NSCLC
# BT-549 breast = system: BT-549 breast
# CAKI-1 renal = system: CAKI-1 renal
# CCRF-CEM leukemia = system: CCRF-CEM leukemia
# COLO 205 colon = system: COLO 205 colon
# DU-145 prostate = system: DU-145 prostate
# EKVX NSCLC = system: EKVX NSCLC
# HCC-2998 colon = system: HCC-2998 colon
# HCT-116 colon = system: HCT-116 colon
# HCT-15 colon = system: HCT-15 colon
# HL-60(TB) leukemia = system: HL-60(TB) leukemia
# HOP-62 NSCLC = system: HOP-62 NSCLC
# HOP-92 NSCLC = system: HOP-92 NSCLC
# HS 578T breast = system: HS 578T breast
# IGROV1 ovarian = system: IGROV1 ovarian
# K-562 leukemia = system: K-562 leukemia
# KM12 colon = system: KM12 colon
# M14 melanoma = system: M14 melanoma
# MALME-3M melanoma = system: MALME-3M melanoma
# MCF7 breast = system: MCF7 breast
# MDA-MB-231 breast = system: MDA-MB-231 breast
# MDA-MB-435 = system: MDA-MB-435
# MOLT-4 leukemia = system: MOLT-4 leukemia
# NCI-H226 lung = system: NCI-H226 lung
# NCI-H23 lung = system: NCI-H23 lung
# NCI-H460 lung = system: NCI-H460 lung
# NCI-H522 lung = system: NCI-H522 lung
# NCI/ADR-RES ovarian = system: NCI/ADR-RES ovarian
# OVCAR-4 ovarian = system: OVCAR-4 ovarian
# OVCAR-8 ovarian = system: OVCAR-8 ovarian
# PC-3 prostate = system: PC-3 prostate
# RPMI-8226 leukemia = system: RPMI-8226 leukemia
# SF-268 CNS = system: SF-268 CNS
# SF-295 CNS = system: SF-295 CNS
# SK-MEL-2 melanoma = system: SK-MEL-2 melanoma
# SK-MEL-28 melanoma = system: SK-MEL-28 melanoma
# SK-MEL-5 melanoma = system: SK-MEL-5 melanoma
# SK-OV-3 ovarian = system: SK-OV-3 ovarian
# SN12C renal = system: SN12C renal
# SNB-19 CNS = system: SNB-19 CNS
# SNB-75 CNS = system: SNB-75 CNS
# SW-620 colon = system: SW-620 colon
# T-47D breast = system: T-47D breast
# TK-10 renal = system: TK-10 renal
# U251 CNS = system: U251 CNS
# UACC-257 melanoma = system: UACC-257 melanoma
# UACC-62 melanoma = system: UACC-62 melanoma
# UO-31 renal = system: UO-31 renal
# ACHN renal = system: ACHN renal
# HT29 colon = system: HT29 colon
# LOX IMVI melanoma = system: LOX IMVI melanoma
# OVCAR-3 ovarian = system: OVCAR-3 ovarian
# OVCAR-5 ovarian = system: OVCAR-5 ovarian
# RXF 393 renal = system: RXF 393 renal
# SF-539 CNS = system: SF-539 CNS
structure (smiles),measurement,setting,value
COc1cc(/C=C/c2cc(/C=C/c3ccc(O)c(OC)c3)n(C(=O)c3ccccc3Br)n2)ccc1O,GI50,786-0 renal,3.19 µM
same,TGI,786-0 renal,> 100 µM
same,GI50,A498 renal,3.04 µM
same,TGI,A498 renal,8.71 µM
same,GI50,A549 NSCLC,3.05 µM
same,TGI,A549 NSCLC,45.3 µM
same,GI50,BT-549 breast,2.12 µM
same,TGI,BT-549 breast,7.75 µM
same,GI50,CAKI-1 renal,2.2 µM
same,TGI,CAKI-1 renal,> 100 µM
same,GI50,CCRF-CEM leukemia,0.841 µM
same,TGI,CCRF-CEM leukemia,6.14 µM
same,GI50,COLO 205 colon,2.31 µM
same,TGI,COLO 205 colon,4.63 µM
same,GI50,DU-145 prostate,3.29 µM
same,TGI,DU-145 prostate,34.8 µM
same,GI50,EKVX NSCLC,4.72 µM
same,TGI,EKVX NSCLC,> 100 µM
same,GI50,HCC-2998 colon,2.48 µM
same,TGI,HCC-2998 colon,6.37 µM
same,GI50,HCT-116 colon,3.06 µM
same,TGI,HCT-116 colon,> 100 µM
same,GI50,HCT-15 colon,2.8 µM
same,TGI,HCT-15 colon,> 100 µM
same,GI50,HL-60(TB) leukemia,2.07 µM
same,TGI,HL-60(TB) leukemia,6 µM
same,GI50,HOP-62 NSCLC,3.41 µM
same,TGI,HOP-62 NSCLC,16.3 µM
same,GI50,HOP-92 NSCLC,3.82 µM
same,TGI,HOP-92 NSCLC,9.65 µM
same,GI50,HS 578T breast,2.75 µM
same,TGI,HS 578T breast,48.6 µM
same,GI50,IGROV1 ovarian,4.11 µM
same,TGI,IGROV1 ovarian,> 100 µM
same,GI50,K-562 leukemia,1.45 µM
same,TGI,K-562 leukemia,> 100 µM
same,GI50,KM12 colon,2.22 µM
same,TGI,KM12 colon,> 100 µM
same,GI50,M14 melanoma,3.07 µM
same,TGI,M14 melanoma,> 100 µM
same,GI50,MALME-3M melanoma,3.27 µM
same,TGI,MALME-3M melanoma,43.6 µM
same,GI50,MCF7 breast,3 µM
same,TGI,MCF7 breast,13 µM
same,GI50,MDA-MB-231 breast,3.59 µM
same,TGI,MDA-MB-231 breast,> 100 µM
same,GI50,MDA-MB-435,0.687 µM
same,TGI,MDA-MB-435,8.06 µM
same,GI50,MOLT-4 leukemia,1.23 µM
same,TGI,MOLT-4 leukemia,> 100 µM
same,GI50,NCI-H226 lung,3.29 µM
same,TGI,NCI-H226 lung,56.5 µM
same,GI50,NCI-H23 lung,2.68 µM
same,TGI,NCI-H23 lung,16.9 µM
same,GI50,NCI-H460 lung,2.99 µM
same,TGI,NCI-H460 lung,> 100 µM
same,GI50,NCI-H522 lung,1.38 µM
same,TGI,NCI-H522 lung,6.32 µM
same,GI50,NCI/ADR-RES ovarian,3.72 µM
same,TGI,NCI/ADR-RES ovarian,> 100 µM
same,GI50,OVCAR-4 ovarian,3.64 µM
same,TGI,OVCAR-4 ovarian,22.8 µM
same,GI50,OVCAR-8 ovarian,2.75 µM
same,TGI,OVCAR-8 ovarian,12.4 µM
same,GI50,PC-3 prostate,3.02 µM
same,TGI,PC-3 prostate,66.9 µM
same,GI50,RPMI-8226 leukemia,2.05 µM
same,TGI,RPMI-8226 leukemia,6 µM
same,GI50,SF-268 CNS,2.44 µM
same,TGI,SF-268 CNS,> 100 µM
same,GI50,SF-295 CNS,3.12 µM
same,TGI,SF-295 CNS,35.1 µM
same,GI50,SK-MEL-2 melanoma,2.37 µM
same,TGI,SK-MEL-2 melanoma,5.92 µM
same,GI50,SK-MEL-28 melanoma,2.57 µM
same,TGI,SK-MEL-28 melanoma,8.71 µM
same,GI50,SK-MEL-5 melanoma,2.56 µM
same,TGI,SK-MEL-5 melanoma,13.3 µM
same,GI50,SK-OV-3 ovarian,2.24 µM
same,TGI,SK-OV-3 ovarian,5.31 µM
same,GI50,SN12C renal,2.22 µM
same,TGI,SN12C renal,> 100 µM
same,GI50,SNB-19 CNS,2.7 µM
same,TGI,SNB-19 CNS,> 100 µM
same,GI50,SNB-75 CNS,2.79 µM
same,TGI,SNB-75 CNS,15.4 µM
same,GI50,SW-620 colon,3.66 µM
same,TGI,SW-620 colon,> 100 µM
same,GI50,T-47D breast,2.93 µM
same,TGI,T-47D breast,13.2 µM
same,GI50,TK-10 renal,3.85 µM
same,TGI,TK-10 renal,33 µM
same,GI50,U251 CNS,2.62 µM
same,TGI,U251 CNS,> 100 µM
same,GI50,UACC-257 melanoma,3.36 µM
same,TGI,UACC-257 melanoma,40.1 µM
same,GI50,UACC-62 melanoma,2.64 µM
same,TGI,UACC-62 melanoma,8.77 µM
same,GI50,UO-31 renal,2.36 µM
same,TGI,UO-31 renal,34.1 µM
Cc1cccc(Cn2cc(CO)c3cnccc32)c1,GI50,786-0 renal,> 100 µM
same,TGI,786-0 renal,> 100 µM
same,GI50,A498 renal,10 µM
same,TGI,A498 renal,26.7 µM
same,GI50,A549 NSCLC,> 100 µM
same,TGI,A549 NSCLC,> 100 µM
same,GI50,ACHN renal,> 100 µM
same,TGI,ACHN renal,> 100 µM
same,GI50,BT-549 breast,35.7 µM
same,TGI,BT-549 breast,> 100 µM
same,GI50,CAKI-1 renal,> 100 µM
same,TGI,CAKI-1 renal,> 100 µM
same,GI50,COLO 205 colon,> 100 µM
same,TGI,COLO 205 colon,> 100 µM
same,GI50,DU-145 prostate,> 100 µM
same,TGI,DU-145 prostate,> 100 µM
same,GI50,EKVX NSCLC,20.9 µM
same,TGI,EKVX NSCLC,> 100 µM
same,GI50,HCC-2998 colon,> 100 µM
same,TGI,HCC-2998 colon,> 100 µM
same,GI50,HCT-116 colon,36.8 µM
same,TGI,HCT-116 colon,> 100 µM
same,GI50,HCT-15 colon,> 100 µM
same,TGI,HCT-15 colon,> 100 µM
same,GI50,HOP-62 NSCLC,> 100 µM
same,TGI,HOP-62 NSCLC,> 100 µM
same,GI50,HOP-92 NSCLC,7.88 µM
same,TGI,HOP-92 NSCLC,79.4 µM
same,GI50,HS 578T breast,> 100 µM
same,TGI,HS 578T breast,> 100 µM
same,GI50,HT29 colon,67.2 µM
same,TGI,HT29 colon,> 100 µM
same,GI50,IGROV1 ovarian,44.8 µM
same,TGI,IGROV1 ovarian,> 100 µM
same,GI50,KM12 colon,85.6 µM
same,TGI,KM12 colon,> 100 µM
same,GI50,LOX IMVI melanoma,67.3 µM
same,TGI,LOX IMVI melanoma,> 100 µM
same,GI50,M14 melanoma,> 100 µM
same,TGI,M14 melanoma,> 100 µM
same,GI50,MALME-3M melanoma,64.6 µM
same,TGI,MALME-3M melanoma,> 100 µM
same,GI50,MCF7 breast,51.3 µM
same,TGI,MCF7 breast,> 100 µM
same,GI50,MDA-MB-231 breast,> 100 µM
same,TGI,MDA-MB-231 breast,> 100 µM
same,GI50,MDA-MB-435,49.7 µM
same,TGI,MDA-MB-435,> 100 µM
same,GI50,NCI-H226 lung,32 µM
same,TGI,NCI-H226 lung,> 100 µM
same,GI50,NCI-H23 lung,19.2 µM
same,TGI,NCI-H23 lung,> 100 µM
same,GI50,NCI-H460 lung,57.5 µM
same,TGI,NCI-H460 lung,> 100 µM
same,GI50,NCI-H522 lung,60.3 µM
same,TGI,NCI-H522 lung,> 100 µM
same,GI50,NCI/ADR-RES ovarian,55.2 µM
same,TGI,NCI/ADR-RES ovarian,> 100 µM
same,GI50,OVCAR-3 ovarian,40.1 µM
same,TGI,OVCAR-3 ovarian,> 100 µM
same,GI50,OVCAR-4 ovarian,78.3 µM
same,TGI,OVCAR-4 ovarian,> 100 µM
same,GI50,OVCAR-5 ovarian,> 100 µM
same,TGI,OVCAR-5 ovarian,> 100 µM
same,GI50,OVCAR-8 ovarian,53.7 µM
same,TGI,OVCAR-8 ovarian,> 100 µM
same,GI50,PC-3 prostate,28.2 µM
same,TGI,PC-3 prostate,> 100 µM
same,GI50,RPMI-8226 leukemia,3.82 µM
same,TGI,RPMI-8226 leukemia,72.9 µM
same,GI50,RXF 393 renal,> 100 µM
same,TGI,RXF 393 renal,> 100 µM
same,GI50,SF-268 CNS,> 100 µM
same,TGI,SF-268 CNS,> 100 µM
same,GI50,SF-295 CNS,12.4 µM
same,TGI,SF-295 CNS,76.7 µM
same,GI50,SF-539 CNS,> 100 µM
same,TGI,SF-539 CNS,> 100 µM
same,GI50,SK-MEL-2 melanoma,> 100 µM
same,TGI,SK-MEL-2 melanoma,> 100 µM
same,GI50,SK-MEL-28 melanoma,> 100 µM
same,TGI,SK-MEL-28 melanoma,> 100 µM
same,GI50,SK-MEL-5 melanoma,24.1 µM
same,TGI,SK-MEL-5 melanoma,> 100 µM
same,GI50,SK-OV-3 ovarian,> 100 µM
same,TGI,SK-OV-3 ovarian,> 100 µM
same,GI50,SN12C renal,> 100 µM
same,TGI,SN12C renal,> 100 µM
same,GI50,SNB-19 CNS,> 100 µM
same,TGI,SNB-19 CNS,> 100 µM
same,GI50,SNB-75 CNS,69.4 µM
same,TGI,SNB-75 CNS,> 100 µM
same,GI50,SW-620 colon,> 100 µM
same,TGI,SW-620 colon,> 100 µM
same,GI50,T-47D breast,47.2 µM
same,TGI,T-47D breast,> 100 µM
same,GI50,TK-10 renal,64.7 µM
same,TGI,TK-10 renal,> 100 µM
same,GI50,U251 CNS,62.5 µM
same,TGI,U251 CNS,> 100 µM
same,GI50,UACC-257 melanoma,44.2 µM
same,TGI,UACC-257 melanoma,> 100 µM
same,GI50,UACC-62 melanoma,75.4 µM
same,TGI,UACC-62 melanoma,> 100 µM
same,GI50,UO-31 renal,46.4 µM
same,TGI,UO-31 renal,> 100 µM
